The test system of the assay is K63-linked ubiquitination. Description: Western blot for K63-linked ubiquitination in Plasmodium blood stage. It counts as cell-based, P. falciparum. As to conditions: 0.001-100 μM, 24 hr, ring-stage blood stage parasites. How it is done: P. falciparum asexual blood-stage culture. P. falciparum 3D7 isolate was maintained under standard conditions in complete culturing medium [10.44 g/L RPMI 1640 (Invitrogen), 5.94 g/L HEPES (Invitrogen), 50 mg/L hypoxanthine (Sigma), 2.02 g/L sodium bicarbonate (Sigma), 5 g/L albuMAX II (Invitrogen), 25 mg/L gentamicin (Sigma), pH 7.2]. Parasite cultures were supplied with human red blood cells (Gulf Coast Regional Blood Center) at 1% hematocrit. To obtain synchronous cultures, Plasmodium parasites (at least 50% parasites were at the early-ring stage) were pelleted at 300×g for 7 min using a low brake setting and treated with 25 volume 5% D-sorbitol (Sigma) at 37° C. for 10 min. Treated parasites were then harvested and washed with 25 volume of complete culturing medium using the aforementioned centrifugation protocol, and diluted with the complete medium to 1% hematocrit to maintain the parasite culture at 37° C. and 5% CO2.
Protein extraction and Western blot for K63-linked ubiquitination in Plasmodium blood stage. […] Total protein lysates were heated in SDS loading buffer for 5 min at 80° C., analyzed on 4-20% Tris-Glycine polyacrylamide gels (Novex, Life Technologies) and subsequently transferred to nitrocellulose membranes. […]
A general note: In western blotting, separated proteins are transferred to a membrane and probed.

`CCCn1c(NC(=O)c2cccc(C(N)=O)c2)nc2ccccc21` [HS-206 (1), (E)-N-(1-Propyl-1,3-dihydro-2H-benzo[d]imidazol-2-ylidene)isophthalamide]: the “levels of K63-linked ubiquitinated proteins” value is on record as “dose-dependent decrease”.
